We go through ten molecules from paper PMC8865417, “Receptor Interaction Profiles of 4-Alkoxy-3,5-Dimethoxy-Phenethylamines (Mescaline Derivatives) and Related Amphetamines” (Frontiers in Pharmacology, 2022).

Molecules are shown by their SMILES.

The target in one assay is T1, hα2A adrenergic receptor (Homo sapiens, UniProt P08913).
T1 construct: expressed in transfected cells; host or cells: Chinese hamster lung cells (membrane preparations)
T1 sequence (P08913 1-465): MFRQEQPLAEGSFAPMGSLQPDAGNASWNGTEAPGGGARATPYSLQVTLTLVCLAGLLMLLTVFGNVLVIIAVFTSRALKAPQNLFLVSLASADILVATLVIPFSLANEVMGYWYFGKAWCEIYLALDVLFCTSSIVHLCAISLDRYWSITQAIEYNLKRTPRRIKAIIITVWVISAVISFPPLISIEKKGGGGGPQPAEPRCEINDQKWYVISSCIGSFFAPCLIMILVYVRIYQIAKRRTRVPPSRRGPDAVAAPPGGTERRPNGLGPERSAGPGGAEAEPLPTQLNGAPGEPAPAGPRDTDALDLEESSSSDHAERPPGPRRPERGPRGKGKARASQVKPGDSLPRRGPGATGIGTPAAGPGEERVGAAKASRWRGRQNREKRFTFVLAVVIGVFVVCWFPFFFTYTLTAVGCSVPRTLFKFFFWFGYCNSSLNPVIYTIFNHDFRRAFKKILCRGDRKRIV
Briefly: Radioligand binding at hα2A adrenergic receptor ([3H]rauwolscine).

Another assay concerns the target T2, hSERT (Homo sapiens, UniProt P31645).
T2 construct: expressed in transfected cells; host or cells: HEK 293 cells (membrane preparations)
Put plainly: Radioligand binding at hSERT ([3H]citalopram).

Another assay has as its target T3, h5-HT1A receptor (Homo sapiens, UniProt P08908).
T3 construct: expressed in transfected cells; host or cells: HEK 293 cells (membrane preparations)
T3 sequence (P08908 1-422): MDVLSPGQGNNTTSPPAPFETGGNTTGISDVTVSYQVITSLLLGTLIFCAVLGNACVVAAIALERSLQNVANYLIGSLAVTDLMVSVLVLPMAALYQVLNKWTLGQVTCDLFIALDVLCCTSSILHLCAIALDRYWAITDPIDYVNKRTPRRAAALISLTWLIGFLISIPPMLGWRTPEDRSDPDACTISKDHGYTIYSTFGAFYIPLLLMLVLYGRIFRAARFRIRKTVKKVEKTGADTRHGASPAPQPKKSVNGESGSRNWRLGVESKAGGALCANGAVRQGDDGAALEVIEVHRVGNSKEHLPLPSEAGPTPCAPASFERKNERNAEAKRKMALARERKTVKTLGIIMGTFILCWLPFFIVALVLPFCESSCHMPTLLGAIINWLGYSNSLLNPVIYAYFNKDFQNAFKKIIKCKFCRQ
Put plainly: Radioligand binding at h5-HT1A receptor ([3H]8-OH-DPAT).

The target in a further assay is T4, hα1A adrenergic receptor (Homo sapiens, UniProt P35348).
T4 construct: expressed in transfected cells; host or cells: Chinese hamster ovary cells (membrane preparations)
T4 sequence (P35348 1-466): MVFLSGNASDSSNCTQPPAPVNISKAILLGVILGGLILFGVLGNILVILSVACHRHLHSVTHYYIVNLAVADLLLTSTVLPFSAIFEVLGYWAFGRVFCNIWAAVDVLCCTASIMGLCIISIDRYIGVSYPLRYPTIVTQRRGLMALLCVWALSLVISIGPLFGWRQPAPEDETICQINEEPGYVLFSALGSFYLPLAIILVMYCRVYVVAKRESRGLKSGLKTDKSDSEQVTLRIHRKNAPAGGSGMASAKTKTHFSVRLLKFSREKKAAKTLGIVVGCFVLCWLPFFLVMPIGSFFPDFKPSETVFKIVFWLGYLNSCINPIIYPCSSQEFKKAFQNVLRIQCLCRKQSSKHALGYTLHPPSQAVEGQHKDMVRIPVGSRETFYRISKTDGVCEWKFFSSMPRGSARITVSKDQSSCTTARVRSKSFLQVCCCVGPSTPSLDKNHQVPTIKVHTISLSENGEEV
Put plainly: Radioligand binding at hα1A adrenergic receptor ([3H]prazosin). Conditions: mean ± SD.

The target in a further assay is T5, h5-HT2C receptor (Homo sapiens, UniProt P28335).
T5 construct: expressed in transfected cells; host or cells: HEK 293 cells (membrane preparations)
T5 sequence (P28335 33-458): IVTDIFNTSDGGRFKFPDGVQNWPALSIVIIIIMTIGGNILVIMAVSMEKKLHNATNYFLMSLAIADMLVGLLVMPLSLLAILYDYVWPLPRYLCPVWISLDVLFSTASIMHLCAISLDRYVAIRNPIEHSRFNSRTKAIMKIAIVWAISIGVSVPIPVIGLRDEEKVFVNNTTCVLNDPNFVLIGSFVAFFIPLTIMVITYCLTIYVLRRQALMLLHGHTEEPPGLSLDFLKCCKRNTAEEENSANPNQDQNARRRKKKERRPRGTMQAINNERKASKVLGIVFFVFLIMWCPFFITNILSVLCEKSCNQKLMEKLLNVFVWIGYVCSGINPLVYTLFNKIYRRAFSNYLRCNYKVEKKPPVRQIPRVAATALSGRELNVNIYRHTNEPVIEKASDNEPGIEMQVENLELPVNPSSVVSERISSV
Put plainly: biochemical. In kind it is binding. The settings on record: for Ki: [3H]mesulergine, mean ± SD, read-out: h5-HT2C Receptor binding Ki ± SD.

Another assay has as its target T6, mouse TAAR1 (Mus musculus, UniProt Q923Y8).
T6 construct: expressed in transfected cells; host or cells: HEK 293 cells (membrane preparations)
Put plainly: Radioligand binding at mouse TAAR1 ([3H]RO5166017).

The target of assay [1] is T7, dopaminergic hD2 receptor (Homo sapiens, UniProt P14416).
T7 construct: expressed in transfected cells; host or cells: HEK 293 cells (membrane preparations)
Briefly: Radioligand binding at dopaminergic hD2 receptor ([3H]spiperone).

The target in another assay is human 5-HT2A receptor (Homo sapiens, UniProt P28223). The settings on record: for Emax: NIH3T3, read-out: h5-HT2A Activation efficacy max ± SD, relative to 5-HT = 100%.
A further assay concerns the target T8, hDAT (Homo sapiens, UniProt Q01959).
T8 construct: expressed in transfected cells; host or cells: HEK 293 cells (membrane preparations)
Briefly: Radioligand binding at hDAT ([3H]WIN35,428).

The next assay has as its target human 5-HT2B receptor (Homo sapiens, UniProt P41595). Conditions: for EC50: h5-HT2B Activation potency EC50 ± SD, HEK 293 cells, calcium FLIPR, mean ± SD; for Emax: HEK293, read-out: h5-HT2B Activation efficacy max ± SD, relative to 5-HT = 100%.

T6 sequence (Q923Y8 whole entry): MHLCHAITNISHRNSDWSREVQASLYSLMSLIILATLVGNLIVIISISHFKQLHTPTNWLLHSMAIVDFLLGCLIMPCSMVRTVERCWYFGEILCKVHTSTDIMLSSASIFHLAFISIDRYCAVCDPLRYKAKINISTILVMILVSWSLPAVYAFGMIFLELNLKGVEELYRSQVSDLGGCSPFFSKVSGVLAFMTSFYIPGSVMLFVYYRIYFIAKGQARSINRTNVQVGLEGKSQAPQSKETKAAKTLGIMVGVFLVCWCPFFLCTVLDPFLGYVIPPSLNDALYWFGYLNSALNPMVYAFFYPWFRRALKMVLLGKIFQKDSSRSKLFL
Chain of human 5-HT2A receptor (P28223 whole entry): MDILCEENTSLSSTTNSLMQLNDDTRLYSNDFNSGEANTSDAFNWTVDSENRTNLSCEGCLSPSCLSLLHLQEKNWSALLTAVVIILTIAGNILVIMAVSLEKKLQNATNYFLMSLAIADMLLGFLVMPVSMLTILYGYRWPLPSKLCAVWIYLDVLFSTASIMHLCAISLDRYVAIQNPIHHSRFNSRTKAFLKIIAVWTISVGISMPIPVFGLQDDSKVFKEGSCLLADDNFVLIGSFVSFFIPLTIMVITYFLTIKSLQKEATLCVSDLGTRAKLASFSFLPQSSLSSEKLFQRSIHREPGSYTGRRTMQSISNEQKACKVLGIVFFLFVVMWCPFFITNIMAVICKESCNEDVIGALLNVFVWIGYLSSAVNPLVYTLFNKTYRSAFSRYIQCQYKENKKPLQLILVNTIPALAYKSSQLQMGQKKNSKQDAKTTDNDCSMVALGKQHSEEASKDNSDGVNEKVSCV
T7 sequence (P14416 whole entry): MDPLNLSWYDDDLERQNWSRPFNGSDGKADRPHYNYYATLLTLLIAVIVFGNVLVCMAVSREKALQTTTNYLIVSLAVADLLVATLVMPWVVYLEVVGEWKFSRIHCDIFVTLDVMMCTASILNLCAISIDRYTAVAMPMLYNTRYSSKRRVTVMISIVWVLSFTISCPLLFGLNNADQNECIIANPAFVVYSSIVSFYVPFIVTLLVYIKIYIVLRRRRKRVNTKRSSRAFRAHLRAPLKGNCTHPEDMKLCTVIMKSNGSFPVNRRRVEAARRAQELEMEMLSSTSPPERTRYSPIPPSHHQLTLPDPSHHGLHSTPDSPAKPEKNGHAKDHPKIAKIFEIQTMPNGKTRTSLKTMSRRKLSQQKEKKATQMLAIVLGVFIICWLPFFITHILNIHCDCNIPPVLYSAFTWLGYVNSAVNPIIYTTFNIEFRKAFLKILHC
T2 sequence (P31645 whole entry): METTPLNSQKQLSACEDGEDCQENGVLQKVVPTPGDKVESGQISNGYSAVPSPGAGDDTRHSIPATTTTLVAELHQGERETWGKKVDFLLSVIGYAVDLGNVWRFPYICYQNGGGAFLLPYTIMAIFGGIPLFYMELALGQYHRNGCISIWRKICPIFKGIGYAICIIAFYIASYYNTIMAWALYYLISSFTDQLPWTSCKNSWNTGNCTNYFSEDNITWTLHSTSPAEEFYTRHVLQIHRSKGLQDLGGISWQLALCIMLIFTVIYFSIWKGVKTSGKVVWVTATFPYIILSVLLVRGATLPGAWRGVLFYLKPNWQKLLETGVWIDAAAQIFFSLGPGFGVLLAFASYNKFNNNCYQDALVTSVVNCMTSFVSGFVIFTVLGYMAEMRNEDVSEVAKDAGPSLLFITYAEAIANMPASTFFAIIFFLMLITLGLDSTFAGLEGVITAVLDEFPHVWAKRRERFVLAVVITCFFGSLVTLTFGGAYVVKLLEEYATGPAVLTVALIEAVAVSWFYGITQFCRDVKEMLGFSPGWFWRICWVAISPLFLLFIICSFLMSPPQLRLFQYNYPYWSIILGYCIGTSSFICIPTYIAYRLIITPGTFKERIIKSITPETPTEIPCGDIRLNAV
T8 sequence (Q01959 whole entry): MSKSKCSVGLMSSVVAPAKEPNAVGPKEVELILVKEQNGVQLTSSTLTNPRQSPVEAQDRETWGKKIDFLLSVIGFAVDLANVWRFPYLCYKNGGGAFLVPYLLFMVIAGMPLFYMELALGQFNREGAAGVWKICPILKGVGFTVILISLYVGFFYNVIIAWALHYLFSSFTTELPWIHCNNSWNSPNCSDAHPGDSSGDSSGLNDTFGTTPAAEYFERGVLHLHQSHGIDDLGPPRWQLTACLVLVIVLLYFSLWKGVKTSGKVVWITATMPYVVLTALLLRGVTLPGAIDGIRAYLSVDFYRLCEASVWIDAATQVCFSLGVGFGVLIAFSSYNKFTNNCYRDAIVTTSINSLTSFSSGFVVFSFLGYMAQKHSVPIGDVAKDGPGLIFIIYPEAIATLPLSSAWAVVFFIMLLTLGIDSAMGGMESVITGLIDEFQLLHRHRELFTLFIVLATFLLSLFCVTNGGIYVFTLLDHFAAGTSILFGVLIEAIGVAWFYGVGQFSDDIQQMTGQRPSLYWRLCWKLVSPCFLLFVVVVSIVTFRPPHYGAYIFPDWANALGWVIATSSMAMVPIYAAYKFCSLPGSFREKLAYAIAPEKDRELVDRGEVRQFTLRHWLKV
Chain of human 5-HT2B receptor (P41595 whole entry): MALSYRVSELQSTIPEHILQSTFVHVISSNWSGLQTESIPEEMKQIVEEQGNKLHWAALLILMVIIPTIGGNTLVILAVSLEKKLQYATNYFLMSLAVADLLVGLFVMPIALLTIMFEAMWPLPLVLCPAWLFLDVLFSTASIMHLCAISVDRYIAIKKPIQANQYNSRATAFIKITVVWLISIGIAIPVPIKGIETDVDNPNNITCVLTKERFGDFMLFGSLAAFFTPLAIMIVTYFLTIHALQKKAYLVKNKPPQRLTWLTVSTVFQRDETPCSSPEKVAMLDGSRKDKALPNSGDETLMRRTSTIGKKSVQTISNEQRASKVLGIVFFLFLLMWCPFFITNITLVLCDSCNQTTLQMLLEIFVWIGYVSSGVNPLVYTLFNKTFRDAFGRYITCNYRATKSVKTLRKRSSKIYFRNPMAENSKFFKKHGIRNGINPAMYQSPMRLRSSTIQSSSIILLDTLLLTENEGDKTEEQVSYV

For `COc1cc(CCN)cc(OC)c1OCCC(F)(F)F` [compound 26, 3,5-dimethoxy-4-(3,3,3-trifluoropropoxy)phenethylamine], the Ki at hα2A adrenergic receptor was 2.3 µM; at hSERT, greater than 7.5 µM; at h5-HT1A receptor, greater than 5.6 µM; on hα1A adrenergic receptor, greater than 8.7 µM; on h5-HT2C receptor, 5.3 µM; at mouse TAAR1, greater than 4.2 µM. Besides, the Ki in assay [1] is greater than 6.3 µM; at hDAT, greater than 8.5 µM. Besides, the EC50 on human 5-HT2A receptor is 4.9 µM; on human 5-HT2B receptor it was greater than 10 µM.

Turning to `CCCOc1c(OC)cc(CC(C)N)cc1OC` (centres unmarked) [compound 28, 3,5-dimethoxy-4-propyloxyamphetamine], the Ki on hα2A adrenergic receptor is 4.6 µM; on hSERT, greater than 7.5 µM; at h5-HT1A receptor, greater than 5.6 µM; at hα1A adrenergic receptor it was greater than 8.7 µM; at h5-HT2C receptor it was 2 µM; at mouse TAAR1, 1.8 µM. For the same molecule, the Ki was greater than 6.3 µM in assay [1] and greater than 8.5 µM at hDAT. The EC50 was 0.16 ± 0.02 µM at human 5-HT2A receptor and greater than 10 µM on human 5-HT2B receptor. The Emax on human 5-HT2A receptor was 86 to 102%.

`COc1cc(CC(C)N)cc(OC)c1OC(F)F` (centres unmarked) [compound 14, 4-difluoromethoxy-3,5-dimethoxyamphetamine]: the Ki at hα2A adrenergic receptor is 2.6 µM; on hSERT it was greater than 7.5 µM; at h5-HT1A receptor, greater than 5.6 µM; at hα1A adrenergic receptor, greater than 8.7 µM; at h5-HT2C receptor it was 3.7 µM; at mouse TAAR1, 1 µM. In addition, the Ki in assay [1] was greater than 6.3 µM; at hDAT it was greater than 8.5 µM. Also, the EC50 on human 5-HT2A receptor was 0.076 ± 0.04 µM; at human 5-HT2B receptor, 0.15 ± 0.1 µM. The Emax on human 5-HT2B receptor fell in the range of 18 to 29%.

Turning to `COc1cc(CCN)cc(OC)c1OCC(F)(F)F` [compound 18, 3,5-dimethoxy-4-(2,2,2-trifluoroethoxy)phenethylamine], the Ki on hα2A adrenergic receptor was 2.3 µM; on hSERT, greater than 7.5 µM; on h5-HT1A receptor, greater than 5.6 µM; at hα1A adrenergic receptor, greater than 8.7 µM; on h5-HT2C receptor, 1.2 µM; at mouse TAAR1 it was greater than 4.2 µM. Moreover, the Ki was greater than 6.3 µM in assay [1] and greater than 8.5 µM on hDAT. Also, the figures for the EC50 at human 5-HT2A receptor and at human 5-HT2B receptor were 0.96 ± 0.05 µM and 0.21 ± 0.13 µM, respectively. The Emax at human 5-HT2A receptor is 44 to 78%; at human 5-HT2B receptor, 29 ± 14%.

Regarding `COc1cc(CCN)cc(OC)c1OC(CF)CF` [compound 23, 3,5-dimethoxy-4-(1,3-difluoroprop-2-yloxy)phenethylamine], the Ki was 2.7 µM at hα2A adrenergic receptor; greater than 7.5 µM on hSERT; greater than 5.6 µM at h5-HT1A receptor; greater than 8.7 µM on hα1A adrenergic receptor; greater than 10 µM on h5-HT2C receptor; greater than 4.2 µM at mouse TAAR1. The Ki in assay [1] was greater than 6.3 µM; at hDAT it was greater than 8.5 µM. In addition, the EC50 on human 5-HT2B receptor is greater than 10 µM.

For the molecule `COc1cc(CCN)cc(OC)c1OC(F)(F)F` [compound 13, 4-trifluoromethoxy-3,5-dimethoxyphenethylamine], the Ki at hα2A adrenergic receptor was 0.45 ± 0.06 µM; at hSERT, greater than 7.5 µM; on h5-HT1A receptor it was 2.2 µM; on hα1A adrenergic receptor, 3.2 µM; on h5-HT2C receptor, 0.29 ± 0.1 µM; on mouse TAAR1, 1.9 µM. Besides, the Ki in assay [1] is greater than 6.3 µM; on hDAT, greater than 8.5 µM. Moreover, at h5-HT2C receptor, the “Higher affinity at the 5-HT2C receptor than mescaline (5)” value (“Higher affinity” for short) is recorded as 19- to 34 fold. For the same molecule, the results for the EC50 at human 5-HT2A receptor and on human 5-HT2B receptor were 0.28 ± 0.12 µM and 0.088 ± 0.02 µM, respectively. Further, at human 5-HT2B receptor, the Emax turned out to be 45 ± 6%.

Turning to `COc1cc(CCN)cc(OC)c1OCc1ccccc1` [compound 33, 4-benzyloxy-3,5-dimethoxyphenethylamine], the Ki on hα2A adrenergic receptor was 2.3 µM; on hSERT, greater than 7.5 µM; on h5-HT1A receptor, 4.4 µM; at hα1A adrenergic receptor, greater than 8.7 µM; at h5-HT2C receptor it was 0.44 ± 0.12 µM; on mouse TAAR1 it was 2.4 µM. In addition, the Ki in assay [1] was greater than 6.3 µM; at hDAT, greater than 8.5 µM. In addition, the “Higher affinity” value at h5-HT2C receptor was 19- to 34 fold. In addition, the figures for the EC50 at human 5-HT2A receptor and on human 5-HT2B receptor were 0.027 ± 0.008 µM and greater than 10 µM, respectively.

On to `COc1cc(CCN)cc(OC)c1OCCCF` [compound 25, 3,5-dimethoxy-4-(3-fluoropropoxy)-phenethylamine], for which the Ki on hα2A adrenergic receptor was 2.9 µM; on hSERT, greater than 7.5 µM; at h5-HT1A receptor, greater than 5.6 µM; at hα1A adrenergic receptor, greater than 8.7 µM; on h5-HT2C receptor, 5.3 µM; at mouse TAAR1, greater than 4.2 µM. Further, the figures for the Ki (in assay [1]; on hDAT) were greater than 6.3 µM and greater than 8.5 µM, respectively. Besides, the EC50 was 4.5 µM at human 5-HT2A receptor and greater than 10 µM at human 5-HT2B receptor. Also, the Emax at human 5-HT2A receptor lay in the range of 85 to 94%.

For the molecule `C=C(C)COc1c(OC)cc(CCN)cc1OC` [compound 32, 3,5-dimethoxy-4-methallyloxyphenethylamine], the Ki on hα2A adrenergic receptor is 1.5 µM; at hSERT it was greater than 7.5 µM; on h5-HT1A receptor, 5.1 µM; at hα1A adrenergic receptor it was greater than 8.7 µM; on h5-HT2C receptor it was 0.52 ± 0.15 µM; on mouse TAAR1, 3.9 µM. The Ki was greater than 6.3 µM in assay [1] and greater than 8.5 µM on hDAT. Moreover, on h5-HT2C receptor, the “Higher affinity” value is 19- to 34 fold. Also, the EC50 at human 5-HT2A receptor is 0.079 ± 0.012 µM; on human 5-HT2B receptor it was greater than 10 µM. For the same molecule, the Emax on human 5-HT2A receptor was 85 to 94%.

Consider `COc1cc(CCN)cc(OC)c1OC1CC1` [compound 29, 4-cyclopropyloxy-3,5-dimethoxyphenethylamine], for which the Ki on hα2A adrenergic receptor was 1.2 µM; on hSERT, greater than 7.5 µM; at h5-HT1A receptor it was 4 µM; on hα1A adrenergic receptor it was greater than 8.7 µM; on h5-HT2C receptor, 5.6 µM; on mouse TAAR1 it was greater than 4.2 µM. Also, the Ki is greater than 6.3 µM in [1] and greater than 8.5 µM at hDAT. Also, the results for the EC50 at human 5-HT2A receptor and on human 5-HT2B receptor were 2.6 µM and greater than 10 µM, respectively. Further, the Emax on human 5-HT2A receptor was in the range of 85 to 94%.

Broadly, the Ki is a measure of affinity in units of concentration, obtained from inhibition or displacement. Broadly, the EC50 is the midpoint of the concentration-response curve.
